The source of these data is article PMC4260628 (Chembiochem : a European journal of chemical biology, 2014).

The target of assay [1] is T1, TxtE (Streptomyces scabiei, UniProt C9ZDC6). Format: binding, Streptomyces scabies. The conditions noted are these: TxtE in E. coli cell lysate 1.9 – 2.8 μM, substrate 250–500 μM, 15 min, pH 8.
Assay [2] deals with T1, TxtE. The assay is described as follows: biochemical. The assay is classed as binding, Streptomyces scabies.
Assay [3] deals with T1, TxtE. The note with it: read-out: previously reported Kd; TxtE with L-tryptophan; cited from earlier work.

Read-outs that look alike come from different tables or passages of the source.

A word on the Kd: it is the free concentration of one partner at which half of the binding sites on the other are occupied at equilibrium, for simple one-to-one binding. Turning to `N[C@@H](Cc1c[nH]c2ccccc12)C(=O)O` [Substrate 1, L-tryptophan], the “Spectral Shift” value at TxtE [1] is “type I”. The Kd on TxtE [2] was 39 µM; on TxtE [3], 44 to 60 µM.
